One molecule from patent US10080764B2, “Topical minocycline compositions and methods of using the same” (Laboratory Skin Care, Inc., priority 2011, dated 2018) can be followed below.

SMILES strings stand for the structures.

Holding throughout (type): physicochemical
Data set [1] is described as follows: Binding of minocycline HCl to Hydroxysomes and release (pH dependence). The settings on record: for pH at which minocycline attaches (binds) to Hydroxysomes: binding suspension in water, shaken 30 min, monohydrochloride. The procedure:
Hydroxysomes® (calcium phosphate particles, Laboratory Skin Care, San Carlos, Calif.) were suspended in water. […] The final pH of the suspension was adjusted to 6.2 to 8.0 with add. The binding suspension was mixed by shaking for 30 min. The binding suspensions were centrifuged at 10,000 rpm for 10 min in the bench top microcentrifuge. The supernatants were analyzed with the Shimadzu spectrophotometer to quantify the free minocycline. The bound minocycline was calculated by subtracting the amount of the minocycline detected in the supernatant, from the total initial amount in the binding suspension. The total initial minocycline absorbance at the binding pH was calculated from the linearity equation of the standard plot. • Controls: Minocycline solution at the same pH with the same concentration as in the binding mixture. D. Example Formulation

Data set [2] can be described thus: Fluorescence of bulk powders under white and UV black light. To be noted: 25 mg MNC/g Hydroxysomes.
Data set [3] is described as follows: Minocycline stability in water, 6 days at room temperature, HPLC of supernatant. To be noted: capped glass vial. From the text: The vials were then centrifuged and the supernatant analyzed by HPLC.

`CN(C)c1ccc(O)c2c1C[C@H]1C[C@H]3[C@H](N(C)C)C(O)=C(C(N)=O)C(=O)[C@@]3(O)C(O)=C1C2=O.Cl` [Minocycline HCl, 4,7-Bis(dimethylamino) 1,4,4a,5,5a,6,11,12a-octahydro-3,10,12,12a-tetrahydroxy-1,11-dioxo-2-naphthacenecarboxamide monohydrochloride]: in data set [1], the “pH at which minocycline associated with Hydroxysomes is unstable (releases)” value is given as “acidic pH” and the “pH at which minocycline attaches (binds) to Hydroxysomes” value was “neutral or alkaline pH”. Besides, the “pH at which minocycline attaches (binds) to Hydroxysomes” value in data set [1] (listed as Minocycline) is reported as 6.2-8.0. The “fluorescence of bulk powder under black light” value in data set [2] is recorded as “Intense yellow-orange fluorescence”. For the same molecule, in data set [3], the “degradation by HPLC analysis of supernatant” value was “substantial degradation” and the “visible discoloration of vial” value was “visibly discolored”.
